According to ChEMBL document CHEMBL1156442 (J Biol Chem, 2007):

Key:
[1] = Octanol-water partition coefficient, log KOW of the compound; format: physicochemical; settings: read-out: log K
[2] = Binding affinity to human serum albumin
[3] = target: T1, Gamma-aminobutyric acid receptor subunit alpha-1 (Homo sapiens, UniProt P14867+P18507+P47870); assay: Activity at human GABAA alpha-1-beta-2-gamma-2s receptor expressed in HEK293 cells assessed as effect on GABA-induced current at 3 uM by whole cell patch-clamp technique; format: cell-based
T1 sequence (P14867 whole entry): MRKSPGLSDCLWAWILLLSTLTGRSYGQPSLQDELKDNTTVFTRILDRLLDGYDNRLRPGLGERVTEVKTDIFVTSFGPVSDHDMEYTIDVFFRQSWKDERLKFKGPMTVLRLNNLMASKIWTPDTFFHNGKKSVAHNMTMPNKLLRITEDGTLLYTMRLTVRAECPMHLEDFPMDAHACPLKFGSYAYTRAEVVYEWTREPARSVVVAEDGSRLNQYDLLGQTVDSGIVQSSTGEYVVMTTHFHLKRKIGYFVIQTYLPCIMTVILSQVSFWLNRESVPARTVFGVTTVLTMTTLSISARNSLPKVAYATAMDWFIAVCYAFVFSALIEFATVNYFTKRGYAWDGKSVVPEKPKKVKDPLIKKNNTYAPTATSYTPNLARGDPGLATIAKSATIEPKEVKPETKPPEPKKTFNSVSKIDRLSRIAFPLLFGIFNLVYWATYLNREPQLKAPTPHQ

Rattus norvegicus = assay: Anesthetic potency in Sprague-Dawley rat assessed as loss of righting reflex; format: functional
[4] = Chemical stability in aqueous solution assessed as hydrolysis after 4 hrs; format: physicochemical; settings: read-out: Activity
Rana temporaria = assay: Anesthetic potency in Rana temporaria tadpoles assessed as loss of righting reflex for 60 mins; settings: 1 h

`CC(c1ccccc1)n1cncc1CO` (stereo unspecified) gave a logP [1] of 1.28.

`CC(c1ccccc1)n1cncc1C=O` (stereo unspecified) showed a logP [1] of 1.77.

For `C[C@H](c1ccccc1)n1cncc1C(=O)N=[N+]=[N-]`, the Kd [2] was 121 µM, the EC50 [3] was 11 µM and the ED50 (Rattus norvegicus) was 1.7 mg/kg.

Compound `CC(c1ccccc1)n1cncc1C(=O)N=[N+]=[N-]` (stereo unspecified) has a degraded at 4 h [4] of 10% and a logP [1] of 2.71.

Work on `CCOC(=O)c1cncn1[C@H](C)c1ccccc1` [ETOMIDATE] yielded a Kd [2] of 176 µM and a logP [1] of 2.89.

Work on `COC(=O)c1cncn1C(C)c1ccccc1` (stereo unspecified) [METOMIDATE] yielded a logP [1] of 2.28.

For `CCOC(=O)c1cncn1[C@@H](C)c1ccccc1` [S-ETOMIDATE], the EC50 (Rana temporaria) was 36 µM.
